The text below walks through data of US10328053B2 (Gilead Sciences, Inc., priority 2016, dated 2019).

The test system of series [1] is HBV AD38 viral particles in HepG2 cell line overexpressing NTCP. As to the kind of experiment: HBV DNA Quantification Assay. The format is cell-based. As to conditions: Hepatitis B virus, HepG2, 120 h, HBV-infected HepG2-NTCP cells, 5 days incubation, HBV DNA in culture supernatant (QuantiGene 2.0); geometric mean of a minimum of four determinations. The method, then:
HBV DNA Quantification Assay
A HepG2 cell line overexpressing the HBV virus attachment receptor sodium-taurocholate cotransporting polypeptide (NTCP) was grown to confluency in DMEM growth medium, Dulbecco's Modified Eagle Medium without sodium pyruvate (Life Technologies, Rockville, Md.) supplemented with 10% FBS (Thermo Scientific, Waltham, Md.), 1% penicillin/streptomycin (Life Technologies, Rockville, Md.) and 2 mM L-glutamine (Life Technologies, Rockville, Md.) in T175 flasks. Cells were infected with HBV AD38 viral particles (Texcell, Frederick, USA) at 4000 genome equivalents per cell. After allowing viral infection to take place for 4 days, the infected cells were harvested from the flasks by trypsinization, washed twice with OptiMEM (Life Technologies, Rockville, Md.) and re-suspended in DMEM containing 2% FBS and 1% DMSO at a density of 0.25E6 cells/ml. Infected cells were seeded on 384 well collagen coated plates (Greiner, Austria) at a density of 20,000 cells/well containing serially diluted compounds of the present disclosure or DMSO (0.5%) in a final volume of 80 μl. The assay plates were incubated for a period of 5 days and the antiviral activity of the test compounds were assayed by detecting the presence of HBV DNA in the culture supernatant using the QuantiGene™ 2.0 nucleic acid quantification kit (Affymetrix, Santa Clara, Calif.).
The culture supernatant was harvested and treated with lysis buffer containing Proteinase K (Affymetrix, Santa Clara, Calif.). The supernatant was incubated with HBV viral DNA specific probes (Affymetrix, Santa Clara, Calif.) for 30 minutes at 55° C. This was followed by addition of 0.2M NaOH for 30 minutes at room temperature to denature the DNA, followed by addition of Neutralization buffer (Affymetrix, Santa Clara, Calif.). The resulting lysed and neutralized supernatant was then added to QuantiGene™ 2.0 384 well plates coated with capture oligonucleotides and incubated overnight at 55° C. The HBV specific probe set consists of Capture Extender oligonucleotides (CE's) and blocking probes. Following the overnight incubation, the wells were incubated for one hour sequentially with a Pre-Amplifier, Amplifier and Labeled probes conjugated to alkaline phosphatase with a wash step between incubations. After the final wash step, the alkaline phosphatase substrate (Luminol APS5) was added and the resulting luminescence signal was read in an EnVision Multilabel Plate Reader (PerkinElmer, Santa Clara, Calif.). The EC50 values were calculated from the fit of the dose—response curves to a four-parameter equation. All EC50 values represent geometric mean values of a minimum of four determinations.

Series [2] in a line: Hepatic Stability Assay (in vitro half-life method). The format is in vitro ADME. Further details: dose or concentration left out as unconfirmed. Particulars: pooled cryopreserved hepatocytes, 37° C., 1×10^6 cells/mL, 0-6 hours, LC-MS/MS, 39.5 hours is the maximum detectable half life, read-out: t½ (converted). In short, it runs like this: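 Pooled cryopreserved hepatocytes (1×10^6 cells/mL) incubated with compound at […] test concentration, 37° C.; samples at 0, 1, 3 and 6 h quantified by LC-MS/MS. Half-life from rate of compound disappearance, scaled to predicted hepatic clearance via well-stirred model.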

As usually defined, the EC50 is the concentration that produces a half-maximal response. Take `C#CC1(NC(=O)C(=O)c2c(C)c(C(=O)Nc3ccc(F)c(Cl)c3)n3c2CCC3)CC1` [Example 94, N-(3-chloro-4-fluorophenyl)-7-(2-((1-ethynylcyclopropyl)amino)-2-oxoacetyl)-6-methyl-2,3-dihydro-1H-pyrrolizine-5-carboxamide]: the EC50 in series [1] amounted to 5.8 nM. Moreover, the half-life in series [2] is 2.9 h.
The compound `Cc1c(C(=O)C(=O)NC2(c3c[nH]nn3)CC2)c2n(c1C(=O)Nc1ccc(F)c(Cl)c1)[C@@H]1C[C@@H]1C2` [Example 52, (1aR,6aR)-5-(2-((1-(1H-1,2,3-triazol-4-yl)cyclopropyl)amino)-2-oxoacetyl)-N-(3-chloro-4-fluorophenyl)-4-methyl-1,1a,6,6a-tetrahydrocyclopropa[b]pyrrolizine-3-carboxamide] returned an EC50 in series [1] of 7.7 nM. Also, the half-life in series [2] is 4.2 h.
Consider `Cc1c(C(=O)C(=O)NC2(c3nncs3)CC2)c2n(c1C(=O)Nc1ccc(F)c(Cl)c1)[C@@H]1C[C@@H]1C2` [Example 54, (1aR,6aR)-5-(2-((1-(1,3,4-thiadiazol-2-yl)cyclopropyl)amino)-2-oxoacetyl)-N-(3-chloro-4-fluorophenyl)-4-methyl-1,1a,6,6a-tetrahydrocyclopropa[b]pyrrolizine-3-carboxamide], for which the EC50 in series [1] was determined as 7.8 nM. Moreover, the half-life in series [2] was 6.7 h.
In series [1], `Cc1c(C(=O)C(=O)NC2(C(=O)N3CC4(C3)CS(=O)(=O)C4)CC(F)(F)C2)c2n(c1C(=O)Nc1ccc(F)c(Cl)c1)CCC2` [Example 13, N-(3-chloro-4-fluorophenyl)-7-(2-((1-(2,2-dioxido-2-thia-6-azaspiro[3.3]heptane-6-carbonyl)-3,3-difluorocyclobutyl)amino)-2-oxoacetyl)-6-methyl-2,3-dihydro-1H-pyrrolizine-5-carboxamide] returned an EC50 of 252 nM. For the same compound, the half-life in series [2] was 16.4 h.
In the case of `Cc1c(C(=O)C(=O)NC2(C(=O)NC3(C)CS(=O)(=O)C3)CC(F)(F)C2)c2n(c1C(=O)Nc1ccc(F)c(Cl)c1)CCC2` [Example 9, N-(3-chloro-4-fluorophenyl)-7-(2-((3,3-difluoro-1-((3-methyl-1,1-dioxidothietan-3-yl)carbamoyl)cyclobutyl)amino)-2-oxoacetyl)-6-methyl-2,3-dihydro-1H-pyrrolizine-5-carboxamide], in series [1], a half-maximal response (EC50) required 103 nM. In series [2], the half-life is 11.7 h.
The like results for `Cc1c(C(=O)C(=O)NC2(c3nncs3)CC2)c2n(c1C(=O)Nc1ccc(F)c(Cl)c1)CCC2` [Example 12, 7-(2-((1-(1,3,4-thiadiazol-2-yl)cyclopropyl)amino)-2-oxoacetyl)-N-(3-chloro-4-fluorophenyl)-6-methyl-2,3-dihydro-1H-pyrrolizine-5-carboxamide] were, in that order, 5 nM and 6.4 h.
`Cc1c(C(=O)C(=O)NC2(c3c[nH]nn3)CC2)c2n(c1C(=O)Nc1ccc(F)c(Cl)c1)C[C@@H](F)C2` [Example 46, (S)-7-(2-((1-(1H-1,2,3-triazol-4-yl)cyclopropyl)amino)-2-oxoacetyl)-N-(3-chloro-4-fluorophenyl)-2-fluoro-6-methyl-2,3-dihydro-1H-pyrrolizine-5-carboxamide] registered an EC50 in series [1] of 264 nM. Besides, the half-life in series [2] is 16 h.
For `Cc1c(C(=O)C(=O)NC2(c3c[nH]nn3)CC(F)(F)C2)c2n(c1C(=O)Nc1ccc(F)cc1)C[C@H](F)C2` [Example 48, (R)-7-(2-((3,3-difluoro-1-(1H-1,2,3-triazol-4-yl)cyclobutyl)amino)-2-oxoacetyl)-2-fluoro-N-(4-fluorophenyl)-6-methyl-2,3-dihydro-1H-pyrrolizine-5-carboxamide] the same measures were 6.5 nM and 7.9 h.
For the compound `Cc1c(C(=O)C(=O)NC2(c3nncs3)CC2)c2n(c1C(=O)Nc1ccnc(C(F)F)c1F)[C@@H]1C[C@@H]1C2` [Example 68, (1aR,6aR)-5-(2-((1-(1,3,4-thiadiazol-2-yl)cyclopropyl)amino)-2-oxoacetyl)-N-(2-(difluoromethyl)-3-fluoropyridin-4-yl)-4-methyl-1,1a,6,6a-tetrahydrocyclopropa[b]pyrrolizine-3-carboxamide], in series [1], the EC50 was 110 nM. Besides, in series [2], the half-life is 5.2 h.
`Cc1c(C(=O)C(=O)NC2(C(F)(F)F)COC2)c2n(c1C(=O)Nc1ccc(F)c(Cl)c1)CCC2` [Example 7, N-(3-chloro-4-fluorophenyl)-6-methyl-7-(2-oxo-2-((3-(trifluoromethyl)oxetan-3-yl)amino)acetyl)-2,3-dihydro-1H-pyrrolizine-5-carboxamide] registered an EC50 in series [1] of 5.8 nM. The half-life in series [2] is 4.8 h.
Compound `Cc1c(C(=O)C(=O)NC2(c3c[nH]nn3)CC(F)(F)C2)c2n(c1C(=O)Nc1ccc(F)c(C#N)c1)CCC2` [Example 37, N-(3-cyano-4-fluorophenyl)-7-(2-((3,3-difluoro-1-(1H-1,2,3-triazol-4-yl)cyclobutyl)amino)-2-oxoacetyl)-6-methyl-2,3-dihydro-1H-pyrrolizine-5-carboxamide] registered an EC50 in series [1] of 5.6 nM. Further, the half-life in series [2] was 10.9 h.
In series [1], `Cc1c(C(=O)C(=O)NC2(c3cnn[nH]3)CC2)c2n(c1C(=O)Nc1ccc(F)c(Cl)c1F)CCC2` [Example 84, 7-(2-((1-(1H-1,2,3-triazol-5-yl)cyclopropyl)amino)-2-oxoacetyl)-N-(3-chloro-2,4-difluorophenyl)-6-methyl-2,3-dihydro-1H-pyrrolizine-5-carboxamide] yielded an EC50 of 31 nM. The half-life in series [2] is 10.7 h.
In turn, `Cc1c(C(=O)C(=O)NC2(c3c[nH]nn3)CC2)c2n(c1C(=O)Nc1cccc(Cl)c1F)CCC2` [Example 107, 7-(2-((1-(1H-1,2,3-triazol-4-yl)cyclopropyl)amino)-2-oxoacetyl)-N-(3-chloro-2-fluorophenyl)-6-methyl-2,3-dihydro-1H-pyrrolizine-5-carboxamide] showed an EC50 in series [1] of 146 nM. For the same compound, the half-life in series [2] is 9.8 h.
With `Cc1c(C(=O)C(=O)NC2(c3c[nH]nn3)CC2)c2n(c1C(=O)Nc1cccc(C#N)c1)CCC2` [Example 75, 7-(2-((1-(1H-1,2,3-triazol-4-yl)cyclopropyl)amino)-2-oxoacetyl)-N-(3-cyanophenyl)-6-methyl-2,3-dihydro-1H-pyrrolizine-5-carboxamide], the EC50 in series [1] worked out at 106 nM. Moreover, the half-life in series [2] was 17.3 h.
The like results for `CNC(=O)[C@](C)(NC(=O)C(=O)c1c(C)c(C(=O)Nc2ccc(F)c(F)c2)n2c1CCC2)C(F)(F)F` [Example 138, (S)—N-(3,4-difluorophenyl)-6-methyl-7-(2-oxo-2-((1,1,1-trifluoro-2-methyl-3-(methylamino)-3-oxopropan-2-yl)amino)acetyl)-2,3-dihydro-1H-pyrrolizine-5-carboxamide] were, in that order, 160 nM and 17.9 h.
As to `Cc1c(C(=O)C(=O)NC2(c3ccccc3)CC2)c2n(c1C(=O)Nc1ccc(F)c(Cl)c1)CCC2` [Example 66, N-(3-chloro-4-fluorophenyl)-6-methyl-7-(2-oxo-2-((1-phenylcyclopropyl)amino)acetyl)-2,3-dihydro-1H-pyrrolizine-5-carboxamide], the concentration giving a half-maximal response (EC50) in series [1] was found to be 6.5 nM. For the same compound, in series [2], the half-life is 1.4 h.
Regarding `Cc1c(C(=O)C(=O)NC2(C)CS(=O)(=O)C2)c2n(c1C(=O)Nc1ccc(F)c(Cl)c1)CCC2` [Example 21, N-(3-chloro-4-fluorophenyl)-6-methyl-7-(2-((3-methyl-1,1-dioxidothietan-3-yl)amino)-2-oxoacetyl)-2,3-dihydro-1H-pyrrolizine-5-carboxamide], in series [1], the EC50 amounted to 20.1 nM. In series [2], the half-life was 17.1 h.
Consider `Cc1c(C(=O)C(=O)NC2(c3c[nH]nn3)CC(F)(F)C2)c2n(c1C(=O)Nc1ccc(F)c(C#N)c1)[C@@H]1C[C@@H]1C2` [Example 41, (1aR,6aR)—N-(3-cyano-4-fluorophenyl)-5-(2-((3,3-difluoro-1-(1H-1,2,3-triazol-4-yl)cyclobutyl)amino)-2-oxoacetyl)-4-methyl-1,1a,6,6a-tetrahydrocyclopropa[b]pyrrolizine-3-carboxamide], for which the EC50 in series [1] was found to be 7.5 nM. For the same compound, in series [2], the half-life is 4.9 h.
